Experimental data published in patent US12060347B2 (BRISTOL-MYERS SQUIBB COMPANY, priority 2016, dated 2024).

The compounds below were run against T1, human PAR4 (Homo sapiens, UniProt Q96RI0) (assay: PAR4 FLIPR assay: antagonism of agonist-peptide-induced calcium mobilization in PAR4-expressing HEK293 cells). Details: H-Ala-Phe(4-F)-[…]NH2-induced intracellular calcium mobilization, 11-point curves.
T1 construct: expressed in transfected cells; host or cells: HEK293 PAR4 Clone 1.2A (BMS Arctic ID 383940)
T1 sequence (Q96RI0 18-385): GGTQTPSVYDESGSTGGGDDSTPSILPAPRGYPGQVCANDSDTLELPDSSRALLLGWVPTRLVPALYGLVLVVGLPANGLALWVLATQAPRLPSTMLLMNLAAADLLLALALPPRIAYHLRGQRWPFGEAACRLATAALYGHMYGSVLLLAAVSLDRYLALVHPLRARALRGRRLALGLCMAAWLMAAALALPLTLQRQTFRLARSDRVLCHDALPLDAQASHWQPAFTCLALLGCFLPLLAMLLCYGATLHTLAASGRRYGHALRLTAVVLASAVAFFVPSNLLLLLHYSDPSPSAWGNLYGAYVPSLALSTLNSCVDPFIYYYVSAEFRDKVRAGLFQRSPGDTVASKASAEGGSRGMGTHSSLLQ
Format: cell-based
`CCOc1cnc2c(-c3nc4cc(F)c(O[C@@H](C)[C@@H](C)OC(=O)Nc5cnc(OC[C@@H](C)O)nc5)cc4s3)cc(C)cc2n1` [Example 580, (2R,3S)-3-((2-(2-ethoxy-7-methylquinoxalin-5-yl)-5-fluorobenzo[d]thiazol-6-yl)oxy)butan-2-yl (2-((R)-2-hydroxypropoxy)pyrimidin-5-yl)carbamate] gave an IC50 of 1.1 nM.
`COc1cnc2c(-c3nc4cc(F)c(O[C@@H](C)[C@@H](C)OC(=O)Nc5cnc(OC[C@H](C)O)nc5)cc4s3)cc(C)cc2n1` [Example 581, (2R,3S)-3-((5-fluoro-2-(2-methoxy-7-methylquinoxalin-5-yl)benzo[d]thiazol-6-yl)oxy)butan-2-yl (2-((S)-2-hydroxypropoxy)pyrimidin-5-yl)carbamate] gave an IC50 of 4.1 nM.
Work on `CCOc1cnc2c(-c3nc4cc(F)c(O[C@@H](C)[C@@H](C)OC(=O)Nc5cnc(OC[C@H](C)O)nc5)cc4s3)cc(C)cc2n1` [Example 582, (2R,3S)-3-((2-(2-ethoxy-7-methylquinoxalin-5-yl)-5-fluorobenzo[d]thiazol-6-yl)oxy)butan-2-yl (2-((S)-2-hydroxypropoxy)pyrimidin-5-yl)carbamate] yielded an IC50 of 5.3 nM.
`COc1cnc2c(-c3nc4c(Cl)c(F)c(OC[C@@H](C)OC(=O)Nc5cnc(C)nc5)cc4s3)cc(C)cc2n1` [Example 589, (R)-1-((4-chloro-5-fluoro-2-(2-methoxy-7-methylquinoxalin-5-yl)benzo[d]thiazol-6-yl)oxy)propan-2-yl (2-methylpyrimidin-5-yl)carbamate] gave an IC50 of 0.8 nM.
In the case of `COc1cnc2c(-c3nc4c(Cl)c(F)c(OC[C@@H](C)OC(=O)Nc5cccnc5C)cc4s3)cc(C)cc2n1` [Example 590, (R)-1-((4-chloro-5-fluoro-2-(2-methoxy-7-methylquinoxalin-5-yl)benzo[d]thiazol-6-yl)oxy)propan-2-yl (2-methylpyridin-3-yl)carbamate], the IC50 is reported as 25 nM.
`COc1cnc2c(-c3nc4c(Cl)c(F)c(OC[C@@H](C)OC(=O)Nc5cncnc5)cc4s3)cc(C)cc2n1` [Example 591, (R)-1-((4-chloro-5-fluoro-2-(2-methoxy-7-methylquinoxalin-5-yl)benzo[d]thiazol-6-yl)oxy)propan-2-yl pyrimidin-5-ylcarbamate] was tested, and the IC50 was 7 nM.
In the case of `COc1cnc2c(-c3nc4cc(F)c(OC[C@@H](C)OC(=O)Nc5ccc(C)nc5)cc4s3)cc(C)cc2n1` [Example 592, (R)-1-((5-fluoro-2-(2-methoxy-7-methylquinoxalin-5-yl)benzo[d]thiazol-6-yl)oxy)propan-2-yl (6-methylpyridin-3-yl)carbamate], the IC50 is reported as 0.7 nM.
In the case of `COc1cnc2c(-c3nc4c(Cl)c(F)c(OC[C@@H](C)OC(=O)OCc5ccc(N)cn5)cc4s3)cc(C)cc2n1` [Example 596, (R)-(5-aminopyridin-2-yl)methyl (1-((4-chloro-5-fluoro-2-(2-methoxy-7-methylquinoxalin-5-yl)benzo[d]thiazol-6-yl)oxy)propan-2-yl) carbonate], the IC50 is reported as 130 nM.
`COc1cnc2c(-c3nc4cc(F)c(OC[C@@H](C)OC(=O)Nc5cnc(N(C)C)nc5)cc4s3)cc(C)cc2n1` [Example 597, (R)-1-((5-fluoro-2-(2-methoxy-7-methylquinoxalin-5-yl)benzo[d]thiazol-6-yl)oxy)propan-2-yl (2-(dimethylamino)pyrimidin-5-yl)carbamate] was tested, and the IC50 was 15 nM.
`COc1cnc2c(-c3nc4cc(F)c(O[C@@H](C)[C@@H](C)OC(=O)Nc5cnc(N(C)C)nc5)cc4s3)cc(C)cc2n1` [Example 598, (2R,3S)-3-((5-fluoro-2-(2-methoxy-7-methylquinoxalin-5-yl)benzo[d]thiazol-6-yl)oxy)butan-2-yl (2-(dimethylamino)pyrimidin-5-yl)carbamate] showed an IC50 of 3.7 nM.
With `COc1cnc2c(-c3nc4cc(F)c(O[C@@H](C)[C@@H](C)OC(=O)Nc5ccc(N(C)C)nc5)cc4s3)cc(C)cc2n1` [Example 599, (2R,3S)-3-((5-fluoro-2-(2-methoxy-7-methylquinoxalin-5-yl)benzo[d]thiazol-6-yl)oxy)butan-2-yl (6-(dimethylamino)pyridin-3-yl)carbamate] the IC50 was 5.6 nM.
Work on `COc1cnc2c(-c3nc4cc(F)c(O[C@@H](C)[C@@H](C)OC(=O)Nc5ccc(N6CCOC6=O)nc5)cc4s3)cc(C)cc2n1` [Example 600, (2R,3S)-3-((5-fluoro-2-(2-methoxy-7-methylquinoxalin-5-yl)benzo[d]thiazol-6-yl)oxy)butan-2-yl (6-(2-oxooxazolidin-3-yl)pyridin-3-yl)carbamate] yielded an IC50 of 2.4 nM.
`COc1cnc2c(-c3nc4cc(F)c(O[C@@H](C)[C@@H](C)OC(=O)Nc5ccc(NC(C)=O)nc5)cc4s3)cc(C)cc2n1` [Example 601, (2R,3S)-3-((5-fluoro-2-(2-methoxy-7-methylquinoxalin-5-yl)benzo[d]thiazol-6-yl)oxy)butan-2-yl (6-acetamidopyridin-3-yl)carbamate] was tested, and the IC50 was 3.5 nM.
`COc1cnc2c(-c3nc4cc(F)c(O[C@@H](C)[C@@H](C)OC(=O)Nc5ccc(N)nc5)cc4s3)cc(C)cc2n1` [Example 602, (2R,3S)-3-((5-fluoro-2-(2-methoxy-7-methylquinoxalin-5-yl)benzo[d]thiazol-6-yl)oxy)butan-2-yl (6-aminopyridin-3-yl)carbamate] gave an IC50 of 6.4 nM.
With `COc1cnc2c(-c3nc4cc(F)c(O[C@@H](C)[C@@H](C)OC(=O)Nc5ccc(N6CCOCC6)nc5)cc4s3)cc(C)cc2n1` [Example 603, (2R,3S)-3-((5-fluoro-2-(2-methoxy-7-methylquinoxalin-5-yl)benzo[d]thiazol-6-yl)oxy)butan-2-yl (6-morpholinopyridin-3-yl)carbamate] the IC50 was 2.1 nM.
`COc1cnc2c(-c3nc4cc(F)c(O[C@@H](C)[C@@H](C)OC(=O)Nc5cnc(NC(=O)c6ccc(F)c(Cl)c6)nc5)cc4s3)cc(C)cc2n1` [Example 604, (2R,3S)-3-((5-fluoro-2-(2-methoxy-7-methylquinoxalin-5-yl)benzo[d]thiazol-6-yl)oxy)butan-2-yl (2-(3-chloro-4-fluorobenzamido)pyrimidin-5-yl)carbamate] gave an IC50 of 17 nM.
`COc1cnc2c(-c3nc4cc(F)c(O[C@@H](C)[C@@H](C)OC(=O)Nc5ccc(N6CCCC6)nc5)cc4s3)cc(C)cc2n1` [Example 605, (2R,3S)-3-((5-fluoro-2-(2-methoxy-7-methylquinoxalin-5-yl)benzo[d]thiazol-6-yl)oxy)butan-2-yl (6-(pyrrolidin-1-yl)pyridin-3-yl)carbamate] was tested, and the IC50 was 0.7 nM.
For `COc1cnc2c(-c3nc4cc(F)c(O[C@@H](C)[C@@H](C)OC(=O)Nc5cnc(NCC(C)(C)O)nc5)cc4s3)cc(C)cc2n1` [Example 606, (2R,3S)-3-((5-fluoro-2-(2-methoxy-7-methylquinoxalin-5-yl)benzo[d]thiazol-6-yl)oxy)butan-2-yl (2-((2-hydroxy-2-methylpropyl)amino)pyrimidin-5-yl)carbamate], the IC50 was 0.4 nM.
Compound `COc1cnc2c(-c3nc4cc(F)c(O[C@@H](C)[C@@H](C)OC(=O)Nc5cnc(N(C)S(C)(=O)=O)nc5)cc4s3)cc(C)cc2n1` [Example 607, (2R,3S)-3-((5-fluoro-2-(2-methoxy-7-methylquinoxalin-5-yl)benzo[d]thiazol-6-yl)oxy)butan-2-yl (2-(N-methylmethylsulfonamido)pyrimidin-5-yl)carbamate] has an IC50 of 0.2 nM.
With `COc1cnc2c(-c3nc4cc(F)c(O[C@@H](C)[C@@H](C)OC(=O)Nc5cnc(N6CCOCC6)nc5)cc4s3)cc(C)cc2n1` [Example 608, (2R,3S)-3-((5-fluoro-2-(2-methoxy-7-methylquinoxalin-5-yl)benzo[d]thiazol-6-yl)oxy)butan-2-yl (2-morpholinopyrimidin-5-yl)carbamate] the IC50 was 0.5 nM.
In the case of `COc1cnc2c(-c3nc4cc(F)c(OC[C@@H](C)OC(=O)Nc5ccc(N6CCOC6=O)nc5)cc4s3)cc(C)cc2n1` [Example 609, (R)-1-((5-fluoro-2-(2-methoxy-7-methylquinoxalin-5-yl)benzo[d]thiazol-6-yl)oxy)propan-2-yl (6-(2-oxooxazolidin-3-yl)pyridin-3-yl)carbamate], the IC50 is reported as 1.9 nM.
Compound `COc1cnc2c(-c3nc4cc(F)c(OC[C@@H](C)OC(=O)Nc5ccc(NC(C)=O)nc5)cc4s3)cc(C)cc2n1` [Example 610, (R)-1-((5-fluoro-2-(2-methoxy-7-methylquinoxalin-5-yl)benzo[d]thiazol-6-yl)oxy)propan-2-yl (6-acetamidopyridin-3-yl)carbamate] has an IC50 of 4.3 nM.
`COc1cnc2c(-c3nc4cc(F)c(OC[C@@H](C)OC(=O)Nc5cncc(CO)c5)cc4s3)cc(C)cc2n1` [Example 611, (R)-1-((5-fluoro-2-(2-methoxy-7-methylquinoxalin-5-yl)benzo[d]thiazol-6-yl)oxy)propan-2-yl (5-(hydroxymethyl)pyridin-3-yl)carbamate] was tested, and the IC50 was 2.1 nM.
Work on `Cc1cc(-c2nc3cc(F)c(O[C@@H](C)[C@@H](C)OC(=O)Nc4cnc(C)nc4)cc3s2)c2ncc(C(N)=O)nc2c1` [Example 613, (2R,3S)-3-((2-(2-carbamoyl-7-methylquinoxalin-5-yl)-5-fluorobenzo[d]thiazol-6-yl)oxy)butan-2-yl (2-methylpyrimidin-5-yl)carbamate] yielded an IC50 of 65 nM.
In the case of `CNC(=O)c1cnc2c(-c3nc4cc(F)c(O[C@@H](C)[C@@H](C)OC(=O)Nc5cnc(C)nc5)cc4s3)cc(C)cc2n1` [Example 614, (2R,3S)-3-((5-fluoro-2-(7-methyl-2-(methylcarbamoyl)quinoxalin-5-yl)benzo[d]thiazol-6-yl)oxy)butan-2-yl (2-methylpyrimidin-5-yl)carbamate], the IC50 is reported as 30 nM.
